{
  "source": "patent US9023789B2",
  "about": "“Amylin analogs and pharmaceutical compositions thereof” (Novo Nordisk A/S, priority 2012, dated 2015)",
  "key": {"[1]": {"test": "ASSAY (X) pK, determination of T½ in rat", "type": "in vivo", "conditions": "male, Sprague Dawley, plasma, iv, 20 nmol/kg"}, "[2]": {"test_system": "Male Sprague-Dawley rats", "test": "ASSAY (XI) single subcutaneous administration, food intake monitored for 48 hours in rats", "type": "in vivo, rat", "conditions": "for Food intake red (%) 0-24 h / Food intake red (%) 24-48 h: single s.c., compared to vehicle", "in_short": "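Male Sprague-Dawley rats from Taconic Europe, weighing about 250 g on the test day, were singly housed in an online food intake monitoring system (Ellegaard MBRose, Denmark). Before the study they were acclimatized to a reversed light cycle, with lights on from 10 PM to 10 AM. Each rat then received one subcutaneous dose of the analogue, and data are reported as mean±SEM.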"}, "[3]": {"test": "ASSAY (IX) pK, determination of T½ in mini-pig", "type": "in vivo", "conditions": "male, Göttingen, minipig, plasma, iv, 2 nmol/kg"}, "[4]": {"test_system": "Male Wistar rats", "test": "ASSAY (XII) effect from single subcutaneous administration on plasma calcium in rats", "type": "in vivo, rat", "conditions": "for Plasma calcium red (%) 0-12 h (maximal): single s.c., compared to vehicle; for suppression of plasma calcium level relative to vehicle: monitored over 24 hours", "in_short": "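Male Wistar rats (~250 g), groups of five, received a single subcutaneous dose at time 0. Blood drawn at −15 min, 1, 2, 4, 7, 12 and 24 h; total calcium measured in heparin plasma, reported as mean±SEM.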"}},
  "note": "Numbered stars: 1 amine (or outer) side, 2 acyl side, 3 side chain; on linkers, the order of the positions; unused ones are H or OH. Bridge positions count the residues as written; N and C are the ends. Side chains are listed from the residue outwards. Peptide text beside a SMILES is read from it. * marks the point of attachment. C20 diacid = O=C(O)CCCCCCCCCCCCCCCCCCC(=O)*; γGlu = O=C(O)[C@H](CCC(=O)[*:2])N[*:1]",
  "data": [
    {"molecule": "CC[C@H](C)[C@H](NC(=O)[C@H](C)NC(=O)CNC(=O)[C@H](Cc1ccccc1)NC(=O)[C@H](CC(N)=O)NC(=O)[C@@H]1CCCN1C(=O)[C@H](CO)NC(=O)[C@H](CO)NC(=O)[C@H](Cc1c[nH]cn1)NC(=O)[C@H](CCCNC(=N)N)NC(=O)[C@H](CC(C)C)NC(=O)[C@H](Cc1ccccc1)NC(=O)[C@H](CCC(=O)O)NC(=O)[C@H](C)NC(=O)[C@H](CC(C)C)NC(=O)[C@H](CCCNC(=N)N)NC(=O)[C@H](CCC(N)=O)NC(=O)[C@@H](NC(=O)[C@H](C)NC(=O)[C@@H]1CSSC[C@H](NC(=O)[C@@H](N)CCCCNC(=O)CC[C@H](NC(=O)CCCCCCCCCCCCCCCCCCC(=O)O)C(=O)O)C(=O)N[C@@H](CC(N)=O)C(=O)N[C@@H]([C@@H](C)O)C(=O)N[C@@H](C)C(=O)N[C@@H]([C@@H](C)O)C(=O)N1)[C@@H](C)O)C(=O)N1CCC[C@H]1C(=O)N[C@@H](CO)C(=O)N[C@@H](CO)C(=O)N[C@H](C(=O)N[C@@H](CC(N)=O)C(=O)N[C@H](C(=O)NCC(=O)N1CCC[C@H]1C(=O)N[C@@H](CCC(=O)O)C(=O)N[C@H](C(=O)N[C@@H](Cc1ccc(O)cc1)C(N)=O)[C@@H](C)O)C(C)C)[C@@H](C)O", "note": "[Example 109] (H-K([γGlu-C20 diacid])CNTATCATQRLAEFLRHSSPNFGAIPSSTNVGPETY-NH2; disulfide 2-7 (inferred); N-terminus assumed)", "values": [
      {"measurement": "half-life", "setting": "[1]", "result": 17, "unit": "h"},
      {"measurement": "Food intake red (%) 0-24 h", "setting": "[2]; 3 nmol/kg", "result": 57, "unit": "%"},
      {"measurement": "Food intake red (%) 24-48 h", "setting": "[2]; 3 nmol/kg", "result": 50, "unit": "%"},
      {"measurement": "Food intake red (%) 0-24 h", "setting": "[2]; 30 nmol/kg", "result": 89, "unit": "%"},
      {"measurement": "Food intake red (%) 24-48 h", "setting": "[2]; 30 nmol/kg", "result": 91, "unit": "%"},
      {"measurement": "food intake monitored over 48 hours", "setting": "[2]; single subcutaneous administration, 30 nmol/kg, versus vehicle", "result": "reduces food intake"},
      {"measurement": "half-life", "setting": "[3]", "result": 95, "unit": "h"},
      {"measurement": "Plasma calcium red (%) 0-12 h (maximal)", "setting": "[4]; 3 nmol/kg", "result": 7, "unit": "%"},
      {"measurement": "Plasma calcium red (%) 0-12 h (maximal)", "setting": "[4]; 30 nmol/kg", "result": 27, "unit": "%"},
      {"measurement": "suppression of plasma calcium level relative to vehicle", "setting": "[4]; single subcutaneous 3 nmol/kg", "result": "does not trigger a notable suppression of the calcium level"},
      {"measurement": "suppression of plasma calcium level relative to vehicle", "setting": "[4]; single subcutaneous 30 nmol/kg", "result": "induces a minor suppression of the calcium level"},
      {"measurement": "suppression of plasma calcium level relative to vehicle", "setting": "[4]; single subcutaneous 100 nmol/kg", "result": "induces a more pronounced suppression of the calcium level"},
      {"measurement": "suppression of plasma calcium level relative to vehicle", "setting": "[4]; single subcutaneous 300 nmol/kg", "result": "induces a more pronounced suppression of the calcium level"}
    ]}
  ]
}
